Measured values from US11807693B2 (priority 2014, dated 2023).
Starred links: 1 amine or outer side, 2 acyl side, 3 side chain; linkers in the order of their positions; H or OH if unused. Non-standard residues stand in square brackets, D forms with d. Residues, ends and D or L forms follow the SMILES beside them. ξ: configuration not given here. *: point of attachment. dBip = N[C@H](Cc1ccc(-c2ccccc2)cc1)C(=O)O; Oic = O=C(O)[C@@H]1C[C@@H]2CCCC[C@@H]2N1; Phe(4-Cl) = N[C@@H](Cc1ccc(Cl)cc1)C(=O)O; Phe(4-I) = N[C@@H](Cc1ccc(I)cc1)C(=O)O; γGlu = O=C(O)[C@H](CCC(=O)[*:2])N[*:1]; NMeR = CN[C@@H](CCCNC(=N)N)C(=O)O; Tridecanoyl = CCCCCCCCCCCCC(=O)*; hArg = N=C(N)NCCCC[C@H](N)C(=O)O; NMeL = CN[C@@H](CC(C)C)C(=O)O; αMeL = CC(C)C[C@](C)(N)C(=O)O; ξαMeL = CC(C)CC(C)(N)C(=O)O; Nle = CCCC[C@H](N)C(=O)O; ξαMeP = CC1(C(=O)O)CCCN1; ξβ3hV = CC(C)C(N)CC(=O)O; AEEA = NCCOCCOCC(=O)O

Assays:
[1] = target: T1, human APJ receptor (Homo sapiens, UniProt P35414); test: [35S] GTPγS assay, human APJ receptor; format: biochemical
T1 construct: expressed in transfected cells
T1 sequence (P35414 1-380): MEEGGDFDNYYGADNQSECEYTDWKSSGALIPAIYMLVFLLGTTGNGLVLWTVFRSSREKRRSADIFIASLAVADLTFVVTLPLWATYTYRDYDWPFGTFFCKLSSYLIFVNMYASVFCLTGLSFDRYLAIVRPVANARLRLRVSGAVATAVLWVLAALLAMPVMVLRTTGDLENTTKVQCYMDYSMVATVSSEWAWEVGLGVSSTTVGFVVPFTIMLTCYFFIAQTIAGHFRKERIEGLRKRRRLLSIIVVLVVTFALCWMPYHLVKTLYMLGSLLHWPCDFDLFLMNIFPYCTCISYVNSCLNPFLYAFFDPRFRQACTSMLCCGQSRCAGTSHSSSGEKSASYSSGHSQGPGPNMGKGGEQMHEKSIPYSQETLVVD

[2] = In vitro stability in rat plasma; format: in vitro ADME
Outline: (§1)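 High resolution LC-MS of the supernatant gave remaining peptide. Samples came from 37° C. incubations of 5 μM apelin peptide in rat plasma or liver or kidney homogenate over 4 hr, stopped with methanol plus internal standard.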

[3] = In vitro stability in rat liver homogenate; format: in vitro ADME; settings: tissue homogenate
Outline: as §1

[4] = In vitro stability in rat kidney homogenate; format: in vitro ADME; settings: rat, tissue homogenate
Outline: as §1

[5] = target: T2, rat APJ receptor (Rattus norvegicus, UniProt Q9JHG3); test: [35S] GTPγS assay, rat APJ receptor; format: biochemical; settings: Table 16, read-out: EC50 Rat APJ Receptor
T2 construct: expressed in transfected cells
T2 sequence (Q9JHG3 1-377): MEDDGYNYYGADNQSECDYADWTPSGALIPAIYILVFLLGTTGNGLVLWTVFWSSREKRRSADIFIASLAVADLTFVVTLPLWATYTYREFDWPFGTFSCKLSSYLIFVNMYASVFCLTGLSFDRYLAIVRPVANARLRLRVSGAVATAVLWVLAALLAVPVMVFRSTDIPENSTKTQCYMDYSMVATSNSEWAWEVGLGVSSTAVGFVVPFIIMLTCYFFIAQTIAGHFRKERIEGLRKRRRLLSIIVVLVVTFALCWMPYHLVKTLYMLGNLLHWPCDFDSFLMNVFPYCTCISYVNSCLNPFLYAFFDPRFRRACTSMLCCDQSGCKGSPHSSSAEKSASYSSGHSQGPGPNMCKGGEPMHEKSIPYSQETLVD
Method: The membranes were incubated with modified peptides in the assay buffer. […] Bound [^35S] GTPγS was separated from free radiolabel by filtration. The filter bound radioactivity was determined by liquid scintillation counting.

Structure (SMILES)	EC50 ([1]; human APJ receptor)	remaining at 4 h, 5 μM [2]	remaining at 4 h, 5 μM [3]	remaining at 4 h, 5 μM [4]	EC50 ([1]; Table 16)	EC50 [5]
CCCCCCCCCCCCC(=O)N[C@@H](CCC(=O)NCCOCCOCC(=O)NCCOCCOCC(=O)NC(CC(=O)N[C@@H](CCCNC(=N)N)C(=O)N1CCCC1(C)C(=O)N[C@@H](CCCCNC(=N)N)C(=O)NC(C)(CC(C)C)C(=O)N[C@@H](CO)C(=O)N[C@@H](Cc1c[nH]cn1)C(=O)N[C@@H](CCCCN)C(=O)NCC(=O)N1[C@H](C(=O)N[C@@H](CCCC)C(=O)N2CCCC2(C)C(=O)N[C@@H](Cc2ccc(Cl)cc2)C(=O)O)C[C@@H]2CCCC[C@@H]21)C(C)C)C(=O)O (stereo partly drawn) [compound 552] ({Tridecanoyl-γGlu-AEEA-AEEA}-[ξβ3hV]R[ξαMeP][hArg][ξαMeL]SHKG[Oic][Nle][ξαMeP][Phe(4-Cl)]-OH)	1.95 nM	> 90%	40%	18%		
CCCCCCCCCCCCC(=O)N[C@@H](CCC(=O)NCCOCCOCC(=O)NCCOCCOCC(=O)N[C@@H](CCC(N)=O)C(=O)N[C@@H](CCCNC(=N)N)C(=O)N1CCC[C@H]1C(=O)N[C@@H](CCCCNC(=N)N)C(=O)N[C@@](C)(CC(C)C)C(=O)N[C@@H](CO)C(=O)N[C@@H](Cc1c[nH]cn1)C(=O)N[C@@H](CCCCN)C(=O)NCC(=O)N1[C@H](C(=O)N[C@@H](CCCC)C(=O)N2CCC[C@H]2C(=O)N[C@@H](Cc2ccc(Cl)cc2)C(=O)O)C[C@@H]2CCCC[C@@H]21)C(=O)O [compound 360] ({Tridecanoyl-γGlu-AEEA-AEEA}-QRP[hArg][αMeL]SHKG[Oic][Nle]P[Phe(4-Cl)]-OH)		81.5%	2.5%	2%	0.0519 nM	
CCCCCCCCCCCCC(=O)N[C@@H](CCC(=O)NCCOCCOCC(=O)NCCOCCOCC(=O)N[C@@H](CCCC)C(=O)N[C@H](CCCNC(=N)N)C(=O)N[C@@H](CCC(N)=O)C(=O)N[C@@H](CCCCNC(=N)N)C(=O)N1CCC[C@H]1C(=O)N[C@H](CCCNC(=N)N)C(=O)N(C)[C@@H](CC(C)C)C(=O)N[C@@H](CO)C(=O)N[C@@H](Cc1c[nH]cn1)C(=O)N[C@@H](CCCCN)C(=O)NCC(=O)N1[C@H](C(=O)N[C@@H](Cc2ccc(I)cc2)C(=O)N2CCC[C@H]2C(=O)N[C@H](Cc2ccc(-c3ccccc3)cc2)C(=O)O)C[C@@H]2CCCC[C@@H]21)C(=O)O [compound 314] ({Tridecanoyl-γGlu-AEEA-AEEA}-[Nle][dR]Q[hArg]P[dR][NMeL]SHKG[Oic][Phe(4-I)]P[dBip]-OH)	2.77 nM	> 90%	77.5%	71%		
CCCCCCCCCCCCC(=O)N[C@@H](CCC(=O)NCCOCCOCC(=O)NCCOCCOCC(=O)N[C@H](CCC(N)=O)C(=O)N[C@@H](CCCNC(=N)N)C(=O)N1CCC[C@H]1C(=O)N(C)[C@@H](CCCNC(=N)N)C(=O)N[C@@](C)(CC(C)C)C(=O)N[C@@H](CO)C(=O)N[C@@H](Cc1c[nH]cn1)C(=O)N[C@@H](CCCCN)C(=O)NCC(=O)N1[C@H](C(=O)N[C@@H](CCCC)C(=O)N2CCC[C@H]2C(=O)N[C@@H](Cc2ccc(Cl)cc2)C(=O)O)C[C@@H]2CCCC[C@@H]21)C(=O)O [compound 386] ({Tridecanoyl-γGlu-AEEA-AEEA}-[dQ]RP[NMeR][αMeL]SHKG[Oic][Nle]P[Phe(4-Cl)]-OH)		58%	6%	4%	0.0934 nM	
CCCCCCCCCCCCC(=O)N[C@@H](CCC(=O)NCCOCCOCC(=O)NCCOCCOCC(=O)N[C@@H](CCC(N)=O)C(=O)N[C@@H](CCC(=O)O)C(=O)N1CCC[C@H]1C(=O)N(C)[C@@H](CCCNC(=N)N)C(=O)N[C@@H](CC(C)C)C(=O)N[C@@H](CO)C(=O)N[C@@H](Cc1c[nH]cn1)C(=O)N[C@@H](CCCCN)C(=O)NCC(=O)N1CCC[C@H]1C(=O)N[C@@H](CCCC)C(=O)N1CCC[C@H]1C(=O)N[C@@H](Cc1ccc(Cl)cc1)C(=O)O)C(=O)O [compound 475] ({Tridecanoyl-γGlu-AEEA-AEEA}-QEP[NMeR]LSHKGP[Nle]P[Phe(4-Cl)]-OH)		33%	< 1%		10.3 nM	35.8 nM
